Test results reported in ChEMBL document CHEMBL5696442, “Discovery of type II inhibitors of TGFβ-activated kinase 1 (TAK1) and mitogen-activated protein kinase kinase kinase kinase 2 (MAP4K2)” (J Med Chem, 2015).
Activity calls are given as the source filed them. The rule behind the calls is not given here.

Experiments:
[1] = target: Tyrosine-protein kinase Yes (Homo sapiens) (UniProt P07947); test: Inhibition of YES ACT labeling site in human Huh-7 cells at 1 uM by KiNativ Profiling analysis relative to control; type: cell-based
[2] = target: SRSF protein kinase 1 (Homo sapiens) (UniProt Q96SB4); test: Inhibition of SRPK1 (unknown origin) at 10 uM by Ambit Kinomescan binding assay
Chain of SRSF protein kinase 1 (Homo sapiens) (Q96SB4 whole entry): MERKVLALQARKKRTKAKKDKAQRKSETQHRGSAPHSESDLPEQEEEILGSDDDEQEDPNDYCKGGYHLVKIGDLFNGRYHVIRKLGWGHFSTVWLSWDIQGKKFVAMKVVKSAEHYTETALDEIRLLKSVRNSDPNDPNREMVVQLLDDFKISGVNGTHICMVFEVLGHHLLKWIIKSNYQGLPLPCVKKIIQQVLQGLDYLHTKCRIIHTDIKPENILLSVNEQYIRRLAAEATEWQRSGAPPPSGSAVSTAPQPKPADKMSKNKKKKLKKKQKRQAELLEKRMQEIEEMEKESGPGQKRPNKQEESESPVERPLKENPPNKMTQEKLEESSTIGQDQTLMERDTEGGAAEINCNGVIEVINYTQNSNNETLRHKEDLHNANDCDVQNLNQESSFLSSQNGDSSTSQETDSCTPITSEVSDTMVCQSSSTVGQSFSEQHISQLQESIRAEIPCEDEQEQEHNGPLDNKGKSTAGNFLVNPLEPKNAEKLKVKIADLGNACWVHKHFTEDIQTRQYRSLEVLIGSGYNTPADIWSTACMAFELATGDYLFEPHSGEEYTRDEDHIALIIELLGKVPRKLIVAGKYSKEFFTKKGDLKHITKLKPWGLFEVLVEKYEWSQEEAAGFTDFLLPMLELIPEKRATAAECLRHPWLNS

[3] = target: T1, Serine/threonine-protein kinase Chk1 (Homo sapiens) (UniProt O14757); test: Inhibition of CHK1 K2 labeling site in human Huh-7 cells at 10 uM by KiNativ Profiling analysis relative to control; type: cell-based
T1 sequence (whole entry): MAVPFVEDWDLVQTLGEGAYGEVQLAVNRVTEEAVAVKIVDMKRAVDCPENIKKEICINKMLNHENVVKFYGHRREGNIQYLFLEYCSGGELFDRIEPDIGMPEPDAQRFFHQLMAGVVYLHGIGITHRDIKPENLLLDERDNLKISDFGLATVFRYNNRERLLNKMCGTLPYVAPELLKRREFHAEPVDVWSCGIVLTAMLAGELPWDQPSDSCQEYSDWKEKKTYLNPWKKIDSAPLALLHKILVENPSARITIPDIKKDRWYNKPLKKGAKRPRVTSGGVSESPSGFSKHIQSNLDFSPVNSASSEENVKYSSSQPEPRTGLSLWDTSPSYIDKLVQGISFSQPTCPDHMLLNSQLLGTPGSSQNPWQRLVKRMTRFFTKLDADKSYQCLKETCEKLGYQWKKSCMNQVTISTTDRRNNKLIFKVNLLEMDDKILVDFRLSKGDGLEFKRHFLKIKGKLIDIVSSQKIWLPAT

[4] = target: T2, Inhibitor of nuclear factor kappa-B kinase subunit epsilon (Homo sapiens) (UniProt Q14164); test: Inhibition of IKKe Lys1 labeling site in human A-375 cells at 0.05 uM by KiNativ Profiling analysis relative to control; type: cell-based
T2 sequence (whole entry): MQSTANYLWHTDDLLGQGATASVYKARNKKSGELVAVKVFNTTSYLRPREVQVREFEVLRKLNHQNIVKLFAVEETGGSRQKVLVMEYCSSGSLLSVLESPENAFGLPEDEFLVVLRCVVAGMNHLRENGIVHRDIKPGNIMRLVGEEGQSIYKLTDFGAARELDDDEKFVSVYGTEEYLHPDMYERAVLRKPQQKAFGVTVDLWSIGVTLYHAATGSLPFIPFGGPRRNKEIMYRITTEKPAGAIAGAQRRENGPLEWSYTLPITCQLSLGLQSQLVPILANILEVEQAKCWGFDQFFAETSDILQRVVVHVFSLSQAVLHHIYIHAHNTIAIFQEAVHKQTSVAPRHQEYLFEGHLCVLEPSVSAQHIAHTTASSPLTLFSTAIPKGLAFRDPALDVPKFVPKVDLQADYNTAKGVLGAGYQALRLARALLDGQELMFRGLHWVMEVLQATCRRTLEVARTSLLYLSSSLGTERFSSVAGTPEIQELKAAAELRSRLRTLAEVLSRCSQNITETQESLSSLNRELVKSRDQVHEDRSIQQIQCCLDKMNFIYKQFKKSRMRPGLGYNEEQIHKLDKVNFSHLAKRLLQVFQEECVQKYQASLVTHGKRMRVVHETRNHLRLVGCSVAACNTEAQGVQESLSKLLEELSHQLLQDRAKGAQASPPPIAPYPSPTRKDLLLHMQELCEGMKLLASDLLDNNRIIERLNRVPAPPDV

[5] = target: Serine/threonine-protein kinase B-raf (Homo sapiens, UniProt P15056); test: Inhibition of BRAF (unknown origin) at 10 uM by Ambit Kinomescan binding assay relative to control
[6] = target: Focal adhesion kinase 1 (Homo sapiens) (UniProt Q05397); test: Inhibition of FAK (unknown origin) at 10 uM by Ambit Kinomescan binding assay relative to control
[7] = target: Serine/threonine-protein kinase 16 (Homo sapiens) (UniProt O75716); test: Inhibition of MPSK1 Lys2 labeling site in human A-375 cells at 0.05 uM by KiNativ Profiling analysis relative to control; type: cell-based
Chain of Serine/threonine-protein kinase 16 (Homo sapiens) (O75716 whole entry): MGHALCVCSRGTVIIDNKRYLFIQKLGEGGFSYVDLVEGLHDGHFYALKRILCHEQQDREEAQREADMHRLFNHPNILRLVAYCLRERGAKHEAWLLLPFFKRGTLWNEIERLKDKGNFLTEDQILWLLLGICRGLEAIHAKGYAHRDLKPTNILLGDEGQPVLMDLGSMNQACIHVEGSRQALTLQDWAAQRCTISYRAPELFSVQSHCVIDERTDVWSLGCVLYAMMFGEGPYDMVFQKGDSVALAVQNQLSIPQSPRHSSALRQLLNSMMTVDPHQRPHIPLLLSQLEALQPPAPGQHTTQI

[8] = target: Tyrosine-protein kinase receptor UFO (Homo sapiens) (UniProt P30530); test: Inhibition of AXL (unknown origin) at 1 uM by Ambit Kinomescan binding assay relative to control; values are per cent of control
[9] = test system: Epidermal growth factor receptor (Homo sapiens), P00533 [T790M]; test: Inhibition of EGFR T790M mutant (unknown origin) at 1 uM by Ambit Kinomescan binding assay relative to control
[10] = target: Tyrosine-protein kinase SYK (Homo sapiens) (UniProt P43405); test: Inhibition of SYK (unknown origin) at 1 uM by Ambit Kinomescan binding assay relative to control
[11] = target: 5'-AMP-activated protein kinase catalytic subunit alpha-1 (Homo sapiens) (UniProt Q13131); test: Inhibition of AMPKa1 ATP Loop labeling site in human Huh-7 cells at 1 uM by KiNativ Profiling analysis relative to control; type: cell-based
[12] = target: Interferon-induced, double-stranded RNA-activated protein kinase (Homo sapiens) (UniProt P19525); test: Inhibition of PKR Lys2 labeling site in human Huh-7 cell lysate at 1 uM by KiNativ Profiling analysis relative to control; type: subcellular
Chain of Interferon-induced, double-stranded RNA-activated protein kinase (Homo sapiens) (P19525 whole entry): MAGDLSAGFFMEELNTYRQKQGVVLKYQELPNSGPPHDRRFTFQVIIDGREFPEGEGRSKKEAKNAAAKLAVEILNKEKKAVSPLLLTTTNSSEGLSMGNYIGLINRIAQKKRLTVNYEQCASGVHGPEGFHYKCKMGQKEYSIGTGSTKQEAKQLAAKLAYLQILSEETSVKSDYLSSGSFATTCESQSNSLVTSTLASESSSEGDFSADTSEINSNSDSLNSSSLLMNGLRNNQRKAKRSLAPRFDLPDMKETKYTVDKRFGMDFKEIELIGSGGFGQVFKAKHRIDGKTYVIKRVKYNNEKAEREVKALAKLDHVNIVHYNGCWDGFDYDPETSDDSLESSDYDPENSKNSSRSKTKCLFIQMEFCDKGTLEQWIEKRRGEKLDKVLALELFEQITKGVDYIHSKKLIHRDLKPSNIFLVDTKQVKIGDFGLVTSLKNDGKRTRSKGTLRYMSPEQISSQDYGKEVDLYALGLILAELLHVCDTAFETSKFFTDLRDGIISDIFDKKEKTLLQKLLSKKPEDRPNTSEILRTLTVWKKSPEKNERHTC

[13] = target: Phosphatidylinositol 4-kinase alpha (Homo sapiens) (UniProt P42356); test: Inhibition of PI4KA ATP labeling site in human Huh-7 cells at 1 uM by KiNativ Profiling analysis relative to control; type: cell-based
Chain of Phosphatidylinositol 4-kinase alpha (Homo sapiens) (P42356 whole entry, looked up): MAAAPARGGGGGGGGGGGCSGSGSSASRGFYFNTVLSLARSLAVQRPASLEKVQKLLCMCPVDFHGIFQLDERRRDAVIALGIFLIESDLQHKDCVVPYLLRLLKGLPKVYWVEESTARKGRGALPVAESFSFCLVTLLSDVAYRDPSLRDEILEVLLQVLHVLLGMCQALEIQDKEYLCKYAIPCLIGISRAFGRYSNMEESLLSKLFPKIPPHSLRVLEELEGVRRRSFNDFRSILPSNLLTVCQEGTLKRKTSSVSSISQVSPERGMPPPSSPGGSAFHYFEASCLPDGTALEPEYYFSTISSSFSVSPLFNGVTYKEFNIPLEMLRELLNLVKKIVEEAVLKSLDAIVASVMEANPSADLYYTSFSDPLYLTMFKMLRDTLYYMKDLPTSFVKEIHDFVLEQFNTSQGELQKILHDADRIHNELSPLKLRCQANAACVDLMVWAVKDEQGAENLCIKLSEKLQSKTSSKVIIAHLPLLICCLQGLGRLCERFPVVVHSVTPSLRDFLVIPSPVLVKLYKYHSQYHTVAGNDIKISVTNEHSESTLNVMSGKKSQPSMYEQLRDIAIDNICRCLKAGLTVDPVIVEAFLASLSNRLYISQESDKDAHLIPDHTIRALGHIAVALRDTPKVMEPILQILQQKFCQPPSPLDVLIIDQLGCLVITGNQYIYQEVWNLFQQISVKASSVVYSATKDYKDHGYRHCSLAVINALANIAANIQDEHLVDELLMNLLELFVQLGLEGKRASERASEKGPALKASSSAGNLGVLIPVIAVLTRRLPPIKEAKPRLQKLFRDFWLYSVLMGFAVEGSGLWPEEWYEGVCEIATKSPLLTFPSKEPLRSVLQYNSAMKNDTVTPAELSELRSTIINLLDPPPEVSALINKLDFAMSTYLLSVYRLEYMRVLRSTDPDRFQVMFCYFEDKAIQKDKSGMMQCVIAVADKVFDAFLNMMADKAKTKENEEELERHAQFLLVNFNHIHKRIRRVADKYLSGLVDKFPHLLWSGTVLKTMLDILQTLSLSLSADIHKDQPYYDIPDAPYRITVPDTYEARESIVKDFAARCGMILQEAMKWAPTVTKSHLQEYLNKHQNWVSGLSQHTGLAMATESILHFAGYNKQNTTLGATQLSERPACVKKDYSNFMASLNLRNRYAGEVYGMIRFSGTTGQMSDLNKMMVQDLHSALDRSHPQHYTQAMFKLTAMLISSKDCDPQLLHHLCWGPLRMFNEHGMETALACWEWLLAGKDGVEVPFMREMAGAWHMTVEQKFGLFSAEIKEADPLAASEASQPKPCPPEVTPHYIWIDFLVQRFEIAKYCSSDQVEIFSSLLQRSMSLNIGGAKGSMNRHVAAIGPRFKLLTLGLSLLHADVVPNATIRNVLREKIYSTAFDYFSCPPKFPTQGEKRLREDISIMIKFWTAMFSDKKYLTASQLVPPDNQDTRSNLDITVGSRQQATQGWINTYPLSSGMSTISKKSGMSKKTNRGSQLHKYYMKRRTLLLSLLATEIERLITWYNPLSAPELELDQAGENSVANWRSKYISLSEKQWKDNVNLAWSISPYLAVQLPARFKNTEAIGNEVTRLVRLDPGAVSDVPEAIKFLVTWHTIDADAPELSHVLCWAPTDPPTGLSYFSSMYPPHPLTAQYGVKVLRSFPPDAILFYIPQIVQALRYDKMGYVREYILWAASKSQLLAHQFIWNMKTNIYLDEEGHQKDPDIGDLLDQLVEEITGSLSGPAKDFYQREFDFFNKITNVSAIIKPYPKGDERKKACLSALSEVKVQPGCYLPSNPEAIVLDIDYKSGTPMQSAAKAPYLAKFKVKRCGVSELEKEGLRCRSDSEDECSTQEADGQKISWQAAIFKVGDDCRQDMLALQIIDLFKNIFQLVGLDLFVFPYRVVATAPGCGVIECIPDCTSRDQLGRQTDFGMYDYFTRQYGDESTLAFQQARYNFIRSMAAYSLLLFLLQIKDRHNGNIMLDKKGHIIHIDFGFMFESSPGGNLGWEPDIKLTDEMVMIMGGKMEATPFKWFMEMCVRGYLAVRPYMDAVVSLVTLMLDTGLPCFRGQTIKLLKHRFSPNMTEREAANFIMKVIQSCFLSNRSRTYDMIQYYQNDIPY

[14] = target: Cyclin-dependent kinase 13 (Homo sapiens) (UniProt Q14004); test: Inhibition of CHED Lys2 labeling site harbouring DIKCSNILLNNR in human Huh-7 cells at 1 uM by KiNativ Profiling analysis relative to control; type: cell-based
Chain of Cyclin-dependent kinase 13 (Homo sapiens) (Q14004 whole entry, looked up): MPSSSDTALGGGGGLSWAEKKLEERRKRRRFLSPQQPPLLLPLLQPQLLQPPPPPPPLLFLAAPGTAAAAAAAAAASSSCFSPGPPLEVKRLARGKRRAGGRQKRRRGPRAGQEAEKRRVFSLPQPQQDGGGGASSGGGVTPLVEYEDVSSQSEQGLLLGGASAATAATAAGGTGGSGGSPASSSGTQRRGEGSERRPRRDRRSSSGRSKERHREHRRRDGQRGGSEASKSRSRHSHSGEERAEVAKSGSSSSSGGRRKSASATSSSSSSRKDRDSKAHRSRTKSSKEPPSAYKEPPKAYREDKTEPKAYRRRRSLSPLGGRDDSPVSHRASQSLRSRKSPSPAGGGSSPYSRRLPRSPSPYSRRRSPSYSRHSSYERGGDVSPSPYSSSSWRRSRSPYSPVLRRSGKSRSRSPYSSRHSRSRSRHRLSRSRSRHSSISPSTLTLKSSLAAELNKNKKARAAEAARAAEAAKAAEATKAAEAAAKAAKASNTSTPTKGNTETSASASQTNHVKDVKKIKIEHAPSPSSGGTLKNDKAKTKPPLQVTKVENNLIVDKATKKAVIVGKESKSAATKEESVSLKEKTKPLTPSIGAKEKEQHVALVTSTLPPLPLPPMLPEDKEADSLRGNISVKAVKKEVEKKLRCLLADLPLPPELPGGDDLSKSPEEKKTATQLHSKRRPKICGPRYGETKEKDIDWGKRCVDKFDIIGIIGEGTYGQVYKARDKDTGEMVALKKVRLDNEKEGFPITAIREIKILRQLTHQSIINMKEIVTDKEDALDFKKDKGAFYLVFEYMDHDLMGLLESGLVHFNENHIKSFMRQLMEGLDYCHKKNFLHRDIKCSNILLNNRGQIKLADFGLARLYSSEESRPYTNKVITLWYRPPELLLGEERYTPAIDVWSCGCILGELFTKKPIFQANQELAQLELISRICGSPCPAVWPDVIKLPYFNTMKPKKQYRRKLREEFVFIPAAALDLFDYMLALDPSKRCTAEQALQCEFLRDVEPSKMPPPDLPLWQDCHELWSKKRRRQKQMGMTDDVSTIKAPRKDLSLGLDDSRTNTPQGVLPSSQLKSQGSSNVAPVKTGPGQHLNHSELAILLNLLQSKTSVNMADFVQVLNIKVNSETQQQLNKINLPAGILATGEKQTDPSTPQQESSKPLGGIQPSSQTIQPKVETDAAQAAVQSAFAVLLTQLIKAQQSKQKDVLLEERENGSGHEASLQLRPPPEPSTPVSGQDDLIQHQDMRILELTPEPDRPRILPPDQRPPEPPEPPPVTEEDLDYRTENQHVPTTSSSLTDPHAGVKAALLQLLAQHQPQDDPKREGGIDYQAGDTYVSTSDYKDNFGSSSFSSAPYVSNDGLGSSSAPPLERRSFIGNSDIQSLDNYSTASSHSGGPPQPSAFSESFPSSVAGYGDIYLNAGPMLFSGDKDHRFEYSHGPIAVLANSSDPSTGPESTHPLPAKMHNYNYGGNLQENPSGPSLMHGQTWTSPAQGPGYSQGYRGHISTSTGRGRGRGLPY

[15] = target: T1, Serine/threonine-protein kinase Chk1 (Homo sapiens); test: Inhibition of CHK1 in human Huh-7 cell lysate at 1 uM by KiNativ Profiling analysis relative to control; type: subcellular
[16] = target: T3, Dual specificity mitogen-activated protein kinase kinase 4 (Homo sapiens) (UniProt P45985); test: Inhibition of MAP2K4 Lys2 labeling site in human Huh-7 cell lysate at 1 uM by KiNativ Profiling analysis relative to control; type: subcellular
T3 sequence (whole entry): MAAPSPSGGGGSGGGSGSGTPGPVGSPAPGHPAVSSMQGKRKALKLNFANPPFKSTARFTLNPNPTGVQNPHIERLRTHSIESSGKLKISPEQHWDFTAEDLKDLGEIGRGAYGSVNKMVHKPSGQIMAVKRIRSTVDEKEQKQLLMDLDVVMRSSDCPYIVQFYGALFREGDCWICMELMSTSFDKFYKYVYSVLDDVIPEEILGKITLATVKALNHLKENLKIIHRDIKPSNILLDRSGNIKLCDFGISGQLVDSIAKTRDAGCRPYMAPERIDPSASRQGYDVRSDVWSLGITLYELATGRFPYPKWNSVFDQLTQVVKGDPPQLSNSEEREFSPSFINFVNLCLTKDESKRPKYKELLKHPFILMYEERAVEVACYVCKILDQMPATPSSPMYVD

Question: Which results are given for `CCN1CCN(Cc2ccc(NC(=O)c3ccc(C)c(Oc4ccnc5[nH]ccc45)c3)cc2C(F)(F)F)CC1`?
Answer: inhibition [1]: -0.3%; inhibition [2]: inactive; inhibition [3]: 3.5%; inhibition [4]: -3.7%; inhibition [5]: 9.1%; inhibition [6]: 23%

Question: With `CCN1CCN(Cc2ccc(NC(=O)c3ccc(C)c(/C=C/c4cnc5[nH]ccc5c4OC)c3)cc2C(F)(F)F)CC1` as the compound, how does the inhibition [7] read?
Answer: 14.1%

Question: What about the residual activity [8] of the same compound?
Answer: 55%

Question: And the inhibition [9]?
Answer: 68%

Question: What about the inhibition [10] of the same compound?
Answer: 18%

Question: For `CNc1cc(Oc2cc(C(=O)Nc3cc(N4CCN(C)CC4)cc(C(F)(F)F)c3)ccc2C)ncn1`, which inhibition [11] is on record?
Answer: -3.8%

Question: And the inhibition [12]?
Answer: -3.6%

Question: And the inhibition [13]?
Answer: 29.8%

Question: And the inhibition [14]?
Answer: 38.1%

Question: What about the inhibition [15] of the same compound?
Answer: 0.5%

Question: And the inhibition [16]?
Answer: -3.9%
